From patent US20150038415A1, “PROCESS FOR THE MANUFACTURING OF A DRUG DELIVERY SYSTEM BASED ON A POLYMER COMPRISING A DISPERSED BIOACTIVE AGENT” (DSM IP Assets B.V., priority 2011, published 2015)
Entries after “also recorded” stand apart in the source; their conditions may differ.

Test system: Nb2 (rat lymphoma) cells
Experiment: Bioactivity of released rHGH by Nb2 cell proliferation assay
Format: cell-based
Procedure: Bioactivity of rHGH present in release samples was assessed by measuring its influence on the proliferation of Nb2 (rat lymphoma) cells.^1 1 Bozzola, M. et. al. Evaluation of growth hormone bioactivity using the Nb2 cell bioassay in children with growth disorders. J. Endocrinol Invest.1998, 21, 765-770
The method used is described below:^2 2 Tanaka. T. et. al. A new sensitive and specific bioassay for lactogenic hormones: measurement of prolactin and growth hormone in human serum. J. Clin. Endocrinol. Metab.1980, 51, 1058-1063 […]
Cells were then counted with a Guava Easycyte (Millipore) capillary cytometer using Viacount reagent (Millipore) to stain cells, according to the recommendations of the manufacturer. […]
Samples originating from the release experiments were diluted in incubation medium to reach an expected (according to HPLC quantification) concentration of rHGH between 80 and 280 pg/mL(concentration range in which growth of Nb2 cells is rHGH concentration-dependent). […]
After incubation, cells were stained with 50 uL Viacount reagent and viable cells were counted by capillary cytometry.
Bioactivity of rHGH released from the fibers was measured through use of the cell-proliferation assay described above. Release samples were introduced to the cell culture medium and the effect of rHGH on cell proliferation was measured via cell counting with capillary cytometry.

rHGH: lyophilized powder of recombinant human growth hormone, dispersed in PEA-III-Ac-Bz film cut into fibers
Bioactivity of rHGH released from the fibers (cell proliferation assay) (rHGH released from PEA-III-Ac-Bz fibers into release medium (PBS pH 7.4 with BSA and penicillin) at 37° C., Nb2 cells incubated 72 hours): retained; also recorded: bioactive; also recorded: retains its bioactivity | Cell response to release samples (cell counting with capillary cytometry) (release samples taken at 1 h, 3 h, 6 h, 24 h & 48 h from PEA-III-Ac-Bz fibers with approximately 1-2 wt % rHGH): positive cell response
